Read-outs that look alike come from different tables or passages of the source.
Key:
CYP3A = assay: Metabolism of cabazitaxel
Text: Concomitant administration of strong CYP3A inhibitors (for example, ketoconazole, itraconazole, clarithromycin, atazanavir, indinavir, nefazodone, nelfinavir, ritonavir, saquinavir, telithromycin, voriconazole) may increase cabazitaxel concentrations. Therefore co-administration of cabazitaxel with strong CYP3A inhibitors should be avoided. Caution should be exercised with concomitant use of moderate CYP3A inhibitors. One aspect of the invention is a method of treating a patient for prostate cancer comprising determining whether the patient is undergoing treatment with a CYP3A inhibitor, discontinuing treatment with a CYP3A inhibitor, and then administering cabazitaxel to the patient.

breast cancer = details: phase II, cited from earlier work
[1] = Same clinical study: adverse reactions, hematologic abnormalities, treatment discontinuation, delays and dose reductions; type: in vivo, human
Method: A clinical study was performed wherein patients received either treatment with cabazitaxel or the reference treatment based on mitoxantrone each combined with prednisone or prednisolone.
More specifically, patients over 18 years of age with metastatic castration resistant metastatic prostate cancer either measurable by RECIST criteria or non-measurable disease with rising PSA levels or appearance of new lesions, ECOG (Eastern Cooperative Oncology Group) performance stage 0-2, and adequate organ function (patients had to have neutrophils >1,500 cells/mm^3, platelets >100,000 cells/mm^3, hemoglobin >10 g/dL, creatinine <1.5×upper limit of normal (ULN), total bilirubin <1×ULN, AST <1.5×ULN, and ALT <1.5×ULN) who had had prior hormone therapy, chemotherapy, and radiotherapy, but had progressive during or after docetaxel treatment (cumulative dose ≥225 mg/m^2) were randomized to 10 mg/day of prednisone with either mitoxantrone 12 mg/m^2 or cabazitaxel 25 mg/m^2, both administered every 3 weeks.
Patients with a history of congestive heart failure, or myocardial infarction within the last 6 months, or patients with uncontrolled cardiac arrhythmias, angina pectoris, and/or hypertension were not included in the study.
720 patients were planned to be included in the clinical study: 360 in each cabazitaxel+prednisone and mitoxantrone+prednisone group. Seven hundred and fifty-five patients (755) (median age 68; 84% white) were actually enrolled, 378 in the cabazitaxel and prednisone/prednisolone group and 377 in the mitoxantrone and prednisone/prednisolone group. The maximal number of treatment cycles was 10 for cabazitaxel and 10 for mitoxantrone. The median number of treatment cycles was 6 for cabazitaxel and 4 for mitoxantrone. The median prior dose of docetaxel treatment was 576 mg/m^2 for the cabazitaxel group and 529 mg/m^2 for the mitoxantrone group. Median follow-up was 12.8 months.

[2] = Population pharmacokinetic analysis in patients; type: in vivo, human; details: for Cmax: CV 107%; for half-life: 1-hour intravenous infusion, 3-compartment PK model
Method: A population pharmacokinetic analysis was conducted in 170 patients with solid tumors at doses ranging from 10 to 30 mg/m^2 weekly or every 3 weeks.

[3] = human, in vivo, listed as Cabazitaxel
[4] = percent of patients, laboratory values, cabazitaxel: n = 369, mitoxantrone: n = 370

CO[C@H]1C(=O)[C@]2(C)[C@@H](OC)C[C@H]3OC[C@@]3(OC(C)=O)[C@H]2[C@H](OC(=O)c2ccccc2)[C@]2(O)C[C@H](OC(=O)[C@H](O)[C@@H](NC(=O)OC(C)(C)C)c3ccccc3)C(C)=C1C2(C)C [cabazitaxel, 4α-acetoxy-2α-benzoyloxy-5β,20-epoxy-1β-hydroxy-7β,10β-dimethoxy-9-oxo-11-taxen-13α-yl (2R,3S)-3-tert-butoxycarbonyl-amino-2-hydroxy-3-phenylpropionate]
metabolic pathway (CYP3A): primarily metabolized through CYP3A
response level (breast cancer; prior taxanes and anthracyclines as adjuvant): 14.6%
response level (breast cancer; second-line treatment): 9.5%
Rates of febrile neutropenia ([1]; Example 1): 7.5%
Dose reductions, cycles (%) ([1]; human, in vivo): 9.8%
Dose reductions, no. of cycles ([1]; human, in vivo): 221
Treatment delays >9 days, cycles (%) ([1]; human, in vivo): 2.3%
Treatment delays >9 days, no. of cycles ([1]; human, in vivo): 51
Treatment delays ≤9 days, cycles (%) ([1]; human, in vivo): 7%
Treatment delays ≤9 days, no. of cycles ([1]; human, in vivo): 157
Dose reductions, cycles (%) [1, 3]: (9.8) %
Treatment delays >9 days, cycles (%) [1, 3]: (2.3) %
Treatment delays ≤9 days, cycles (%) [1, 3]: (7.0) %
Discontinuation of study treatment for adverse event, (%) ([1]; intention-to-treat): (17.7) %
Discontinuation of study treatment for adverse event, no. ([1]; intention-to-treat, N = 377 mitoxantrone, N = 378 cabazitaxel): 67
most common (≥5%) grade 3-4 adverse reactions ([1]; patients who received cabazitaxel): neutropenia, leukopenia, anemia, febrile neutropenia, diarrhea, fatigue, and asthenia
Abdominal Pain Grade 1-4, (%) ([1]; percent of patients of n = 371): (17%)
Abdominal Pain Grade 3-4, (%) ([1]; percent of patients of n = 371): (2%)
Alopecia Grade 1-4, (%) ([1]; percent of patients of n = 371): (10%)
Anorexia Grade 1-4, (%) ([1]; percent of patients of n = 371): (16%)
Anorexia Grade 3-4, (%) ([1]; percent of patients of n = 371): (<1%)
Arrhythmia Grade 1-4, (%) ([1]; percent of patients of n = 371): (5%)
Arrhythmia Grade 3-4, (%) ([1]; percent of patients of n = 371): (1%)
Arthralgia Grade 1-4, (%) ([1]; percent of patients of n = 371): (11%)
Arthralgia Grade 3-4, (%) ([1]; percent of patients of n = 371): (1%)
Asthenia Grade 1-4, (%) ([1]; percent of patients of n = 371): (20%)
Asthenia Grade 3-4, (%) ([1]; percent of patients of n = 371): (5%)
Back Pain Grade 1-4, (%) ([1]; percent of patients of n = 371): (16%)
Back Pain Grade 3-4, (%) ([1]; percent of patients of n = 371): (4%)
Bone Pain Grade 1-4, (%) ([1]; percent of patients of n = 371): (5%)
Bone Pain Grade 3-4, (%) ([1]; percent of patients of n = 371): (<1%)
Constipation Grade 1-4, (%) ([1]; percent of patients of n = 371): (20%)
Constipation Grade 3-4, (%) ([1]; percent of patients of n = 371): (1%)
Cough Grade 1-4, (%) ([1]; percent of patients of n = 371): (11%)
Dehydration Grade 1-4, (%) ([1]; percent of patients of n = 371): (5%)
Dehydration Grade 3-4, (%) ([1]; percent of patients of n = 371): (2%)
Diarrhea Grade 1-4, (%) ([1]; percent of patients of n = 371): (47%)
Diarrhea Grade 3-4, (%) ([1]; percent of patients of n = 371): (6%)
Dizziness Grade 1-4, (%) ([1]; percent of patients of n = 371): (8%)
Dysgeusia Grade 1-4, (%) ([1]; percent of patients of n = 371): (11%)
Dyspepsia Grade 1-4, (%) ([1]; percent of patients of n = 371): (10%)
Dyspnea Grade 1-4, (%) ([1]; percent of patients of n = 371): (12%)
Dyspnea Grade 3-4, (%) ([1]; percent of patients of n = 371): (1%)
Dysuria Grade 1-4, (%) ([1]; percent of patients of n = 371): (7%)
Fatigue Grade 1-4, (%) ([1]; percent of patients of n = 371): (37%)
Fatigue Grade 3-4, (%) ([1]; percent of patients of n = 371): (5%)
Febrile Neutropenia Grade 1-4, (%) ([1]; percent of patients of n = 371): (7%)
Febrile Neutropenia Grade 3-4, (%) ([1]; percent of patients of n = 371): (7%)
Headache Grade 1-4, (%) ([1]; percent of patients of n = 371): (8%)
Hematuria Grade 1-4, (%) ([1]; percent of patients of n = 371): (17%)
Hematuria Grade 3-4, (%) ([1]; percent of patients of n = 371): (2%)
Hypotension Grade 1-4, (%) ([1]; percent of patients of n = 371): (5%)
Hypotension Grade 3-4, (%) ([1]; percent of patients of n = 371): (<1%)
Mucosal Inflammation Grade 1-4, (%) ([1]; percent of patients of n = 371): (6%)
Mucosal Inflammation Grade 3-4, (%) ([1]; percent of patients of n = 371): (<1%)
Muscle Spasms Grade 1-4, (%) ([1]; percent of patients of n = 371): (7%)
Musculoskeletal Pain Grade 1-4, (%) ([1]; percent of patients of n = 371): (5%)
Musculoskeletal Pain Grade 3-4, (%) ([1]; percent of patients of n = 371): (<1%)
Nausea Grade 1-4, (%) ([1]; percent of patients of n = 371): (34%)
Nausea Grade 3-4, (%) ([1]; percent of patients of n = 371): (2%)
Pain Grade 1-4, (%) ([1]; percent of patients of n = 371): (5%)
Pain Grade 3-4, (%) ([1]; percent of patients of n = 371): (1%)
Pain in Extremity Grade 1-4, (%) ([1]; percent of patients of n = 371): (8%)
Pain in Extremity Grade 3-4, (%) ([1]; percent of patients of n = 371): (2%)
Peripheral Edema Grade 1-4, (%) ([1]; percent of patients of n = 371): (9%)
Peripheral Edema Grade 3-4, (%) ([1]; percent of patients of n = 371): (<1%)
Peripheral Neuropathy Grade 1-4, (%) ([1]; percent of patients of n = 371): (13%)
Peripheral Neuropathy Grade 3-4, (%) ([1]; percent of patients of n = 371): (<1%)
Pneumonia Grade 1-4, (%) ([1]; percent of patients of n = 371): (3%)
Pneumonia Grade 3-4, (%) ([1]; percent of patients of n = 371): (2%)
Pyrexia Grade 1-4, (%) ([1]; percent of patients of n = 371): (12%)
Pyrexia Grade 3-4, (%) ([1]; percent of patients of n = 371): (1%)
Urinary Tract Infection Grade 1-4, (%) ([1]; percent of patients of n = 371): (8%)
Urinary Tract Infection Grade 3-4, (%) ([1]; percent of patients of n = 371): (2%)
Vomiting Grade 1-4, (%) ([1]; percent of patients of n = 371): (22%)
Vomiting Grade 3-4, (%) ([1]; percent of patients of n = 371): (2%)
Weight Decreased Grade 1-4, (%) ([1]; percent of patients of n = 371): (9%)
Anemia Grade 1-4, (%) [1, 4]: (98%)
Anemia Grade 3-4, (%) [1, 4]: (11%)
Leukopenia Grade 1-4, (%) [1, 4]: (96%)
Leukopenia Grade 3-4, (%) [1, 4]: (69%)
Neutropenia Grade 1-4, (%) [1, 4]: (94%)
Neutropenia Grade 3-4, (%) [1, 4]: 81.7%
Thrombocytopenia Grade 1-4, (%) [1, 4]: (48%)
Thrombocytopenia Grade 3-4, (%) [1, 4]: (4%)
Neutropenia Grade 3-4, (%) ([1]; percent of patients, laboratory values, cabazitaxel: n = 369, mitoxantrone: n = 370, listed as Cabazitaxel): (82%)
dose proportionality ([2]; 10 to 30 mg/m^2, patients with advanced solid tumors): No major deviation from the dose proportionality
volume of distribution (Vss) ([2]; at steady state, for a patient with a median BSA of 1.84 m^2): 2,643 L/m^2
plasma clearance ([2]; for a patient with a median BSA of 1.84 m^2): 26.4 L/h/m^2
Tmax ([2]; human, plasma, intravenous, 25 mg/m^2, Cmax reached at the end of the 1-hour infusion): 1 h
Cmax ([2]; human, plasma, intravenous, 25 mg/m^2, amount administered to provide this Cmax, read-out: Cmax): ~226 ng/mL
Vd ([2]; human, plasma, intravenous, at steady state, read-out: volume of distribution (Vss)): 4860 L
half-life ([2]; human, plasma, iv, read-out: α-half-life): 4 min
half-life ([2]; human, plasma, iv, read-out: β-half-life (converted)): 120 min
half-life ([2]; human, plasma, iv, read-out: γ-half-life (converted)): 5700 min
Cmax ([2]; male, human, plasma, 25 mg/m2, intravenous 25 mg/m^2 every 3 weeks, patients with metastatic prostate cancer, read-out: mean Cmax): 226 ng/mL
clearance ([2]; male, human, plasma, intravenous, patients with metastatic prostate cancer, CV 39%): 808 mL/min
AUC ([2]; male, human, plasma, iv, 25 mg/m2, intravenous 25 mg/m^2 every 3 weeks, patients with metastatic prostate cancer, CV 34%): 991 ng·h/mL
effect of prednisone or prednisolone on the pharmacokinetics of cabazitaxel ([2]; prednisone or prednisolone 10 mg daily): does not affect

Reference: patent publication US12453712B2, “Antitumoral use of cabazitaxel” (Sanofi Mature IP, priority 2009, dated 2025)
